According to patent US11649212B2, “Inhibitors of indoleamine 2,3-dioxygenase and methods of their use” (BRISTOL-MYERS SQUIBB COMPANY, priority 2017, dated 2023):

Experiments:
human IDO1 = biological target: T1, human IDO1 (Homo sapiens, UniProt P14902); experiment: IDO inhibition assay in human IDO1/HEK293 cells; format: cell-based; settings: HEK293 cells stably expressing human IDO1, 20 hours incubation, absorbance at 490 nm; read-out: IDO1 HEK Human IC50
T1 construct: expressed in transfected cells
Experimental: HEK293 cells were transfected with a pCDNA-based mammalian expression vector harboring human IDO1 cDNA (NM 002164.2) by electroporation. They were cultured in medium (DMEM with 10% FBS) containing 1 mg/ml G418 for two weeks. Clones of HEK293 cells that stably expressed human IDO1 protein were selected and expanded for IDO inhibition assay.
The human IDO1/HEK293 cells were seeded at 10,000 cells per 50 μL per well with RPMI/phenol red free media contains 10% FBS in a 384-well black wall clear bottom tissue culture plate (Matrix Technologies LLC) 100 nL of certain concentration of compound was then added to each well using ECHO liquid handling systems. The cells were incubated for 20 hours in 37° C. incubator with 5% CO2.
The compound treatments were stopped by adding trichloroacetic acid (Sigma-Aldrich) to a final concentration at 0.2%. The cell plate was further incubated at 50° C. for 30 minute. The equal volume supernatant (20 μL) and 0.2% (w/v) Ehrlich reagent (4-dimethylaminobenzaldehyde, Sigma-Aldrich) in glacial acetic acid were mixed in a new clear bottom 384-well plate. This plate was then incubated at room temperature for 30 minute. The absorbance at 490 nm was measured on Envision plate reader.
Compound IC50 values were calculated using the counts of 500 nM of a reference standard treatment as one hundred percent inhibition, and counts of no compound but DMSO treatment as zero percent inhibition.

[1] = biological target: T2, Indoleamine 2,3-Dioxygenase (IDO) (Homo sapiens, UniProt P14902); experiment: HeLa cell-based indoleamine 2,3-dioxygenase (IDO) assay (kynurenine production); settings: HeLa cells, IFNγ 25 ng/mL, 48 hour incubation, kynurenine absorbance at 480 nm
T2 construct: endogenous in cells; host or cells: HeLa (ATCC CCL-2), stimulated with IFNγ 25 ng/mL
Experimental: Assessment of Inhibitor Activity in HeLa Cell-Based Indoleamine 2,3-Dioxygenase (IDO) Assay:
HeLa (ATCC® CCL-2) cells were obtained from the ATCC® and cultured in Dulbecco's Modified Eagle Medium supplemented with 4.5 g/L glucose, […] (#10-013-CV, Corning), 2 mM L-alanyl-L-glutamine dipeptide (#35050-061, Gibco), 100U/mL penicillin, 100 μg/mL streptomycin (#SV30010, HyClone) and 10% fetal bovine serum (#SH30071.03 HyClone). Cells were maintained in a humidified incubator at 37° C. in 5% CO2.
IDO activity was assessed as a function of kynurenine production as follows: HeLa cells were seeded in a 96-well culture plate at a density of 5,000 cells/well and allowed to equilibrate overnight. After 24 hours, the media was aspirated and replaced with media containing IFNγ (#285-IF/CF, R&D Systems) at a final concentration of 25 ng/mL. A serial dilution of each test compound was added to the cells in a total volume of 200 μL of culture medium. After a further 48 hour incubation, 170 μL of supernatant was transferred from each well to a fresh 96-well plate. 12.1 μL of 6.1N trichloroacetic acid (#T0699, Sigma-Aldrich) was added to each well and mixed, followed by incubation at 65° C. for 20 minutes to hydrolyze N-formylkynurenine, the product of indoleamine 2,3-dioxygenase, to kynurenine. The reaction mixture was then centrifuged for 10 mins at 500×g to sediment the precipitate. 100 μL of the supernatant was transferred from each well to a fresh 96-well plate. 100 μl of 2% (w/v) p-dimethylaminobenzaldehyde (#15647-7, Sigma-Aldrich) in acetic acid (#A6283, Sigma-Aldrich) was added to each well mixed and incubated at room temperature for 20 mins. Kynurenine concentrations were determined by measuring absorbance at 480 nm and calibrating against an L-kynurenine (#K8625, Sigma-Aldrich) standard curve using a SPECTRAMAX® M2e microplate reader (Molecular Devices). The percentage activity at each inhibitor concentration was determined and IC50 values assessed using nonlinear regression.

T2 sequence (P14902 whole entry): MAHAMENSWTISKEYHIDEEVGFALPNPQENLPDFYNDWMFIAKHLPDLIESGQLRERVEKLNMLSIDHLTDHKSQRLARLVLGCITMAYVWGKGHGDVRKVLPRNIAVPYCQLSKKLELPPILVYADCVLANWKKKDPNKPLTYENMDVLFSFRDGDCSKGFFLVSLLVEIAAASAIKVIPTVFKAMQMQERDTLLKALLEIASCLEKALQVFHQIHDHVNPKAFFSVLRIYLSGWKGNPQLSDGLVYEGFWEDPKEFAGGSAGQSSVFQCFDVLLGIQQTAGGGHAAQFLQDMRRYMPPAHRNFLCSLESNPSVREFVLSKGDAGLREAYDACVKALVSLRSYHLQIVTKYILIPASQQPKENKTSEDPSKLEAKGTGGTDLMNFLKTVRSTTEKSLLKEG
T1 sequence (P14902 whole entry): as above

CCCC(C(=O)NC12CC3CC(CC(C3)C1)C2)N1CCN(c2ccnc3ccc(F)cc23)CC1 (single isomer, unassigned) [Example 19]
IC50 (human IDO1): 1800 nM

CCCC(C(=O)NC12CC3CC(CC(C3)C1)C2)N1CCN(c2ccnc3ccc(F)cc23)CC1 (single isomer, unassigned) [Example 20]
IC50 (human IDO1): 1900 nM

CCC(C(=O)NC1[C@H]2C[C@@H]3C[C@@H](C[C@H]1C3)C2)C1CCN(Cc2cccc(C(F)(F)F)n2)CC1 (single isomer, unassigned) [Example 21, N-(Adamantan-2-yl)-2-(1-((6-(trifluoromethyl)pyridin-2-yl)methyl)piperidin-4-yl)butanamide]
IC50 [1]: 20 nM

CCC(C(=O)NC1[C@H]2C[C@@H]3C[C@@H](C[C@H]1C3)C2)C1CCN(Cc2cccc(C(F)(F)F)n2)CC1 (single isomer, unassigned) [Example 22, N-(Adamantan-2-yl)-2-(1-((6-(trifluoromethyl)pyridin-2-yl)methyl)piperidin-4-yl)butanamide]
IC50 [1]: 1000 nM

C[C@@H](NC(=O)C12CCC(Cl)(CC1)CC2)[C@H]1CC[C@@H](c2ccnc3ccc(F)cc32)CC1 [Example 1, 4-chloro-N—((R)-1-((cis)-4-(6-fluoroquinolin-4-yl)cyclohexyl)ethyl)bicyclo [2.2.2]octane-1-carboxamide]
IC50 [1]: 24 nM

C[C@@H](NC(=O)C1CCN(c2ccc(F)cc2)CC1)[C@H]1CC[C@@H](c2ccnc3ccc(F)cc32)CC1 [Example 2, 1-(4-Fluorophenyl)-N—((R)-1-((1s,4S)-4-(6-fluoroquinolin-4-yl)cyclohexyl)ethyl) piperidine-4-carboxamide]
IC50 [1]: 22 nM

COc1ccc(N2CCC(C(=O)N[C@H](C)[C@H]3CC[C@@H](c4ccnc5ccc(F)cc54)CC3)CC2)cc1 [Example 3, N—((R)-1-((1s,4S)-4-(6-Fluoroquinolin-4-yl)cyclohexyl)ethyl)-1-(4-methoxyphenyl)piperidine-4-carboxamide]
IC50 (human IDO1): 800 nM

C[C@@H](NC(=O)N1CCN(c2ccccc2)CC1)[C@H]1CC[C@@H](c2ccnc3ccc(F)cc32)CC1 [Example 4, N—((R)-1-((1s,4 S)-4-(6-Fluoroquinolin-4-yl)cyclohexyl)ethyl)-4-phenylpiperazine-1-carboxamide]
IC50 [1]: 18 nM

C[C@@H](NC(=O)C1CCCCC1)[C@H]1CC[C@@H](c2ccnc3ccc(F)cc32)CC1 [Example 5, N-((R)-1-((1s,4S)-4-(6-fluoroquinolin-4-yl)cyclohexyl)ethyl)cyclohexanecarboxamide]
IC50 [1]: 11 nM

C[C@@H](NC(=O)C1CC1)[C@H]1CC[C@@H](c2ccnc3ccc(F)cc32)CC1 [Example 6, N-((R)-1-((1s,4S)-4-(6-fluoroquinolin-4-yl)cyclohexyl)ethyl)cyclopropanecarboxamide]
IC50 (human IDO1): 810 nM

C[C@@H](NC(=O)C1CC(F)(F)C1)[C@H]1CC[C@@H](c2ccnc3ccc(F)cc32)CC1 [Example 7, 3,3-difluoro-N-((R)-1-((1s,4S)-4-(6-fluoroquinolin-4-yl)cyclohexyl)ethyl)cyclobutanecarboxamide]
IC50 [1]: 550 nM

C[C@@H](NC(=O)C1CC(F)C1)C1CCC(c2ccnc3ccc(F)cc23)CC1 (stereo partly drawn) [Example 8, (1r,3R)-3-fluoro-N-((R)-1-((1s,4S)-4-(6-fluoroquinolin-4-yl)cyclohexyl)ethyl)cyclobutanecarboxamide]
IC50 (human IDO1): 570 nM

C[C@@H](NC(=O)[C@H]1C[C@@H](F)C1)[C@H]1CC[C@@H](c2ccnc3ccc(F)cc32)CC1 [Example 9, (1s,3S)-3-fluoro-N-((R)-1-((1s,4S)-4-(6-fluoroquinolin-4-yl)cyclohexyl)ethyl)cyclobutanecarboxamide]
IC50 (human IDO1): 620 nM

C[C@@H](NC(=O)C1CCC1)[C@H]1CC[C@@H](c2ccnc3ccc(F)cc32)CC1 [Example 10, N-((R)-1-((1s,4S)-4-(6-fluoroquinolin-4-yl)cyclohexyl)ethyl) cyclobutanecarboxamide]
IC50 (human IDO1): 190 nM

C[C@H](NC(=O)C1CCC(O)CC1)C1CCC(c2ccnc3ccc(F)cc23)CC1 (stereo partly drawn) [Example 11, (1s,4S)-N-((R)-1-((1s,4S)-4-(6-fluoroquinolin-4-yl)cyclohexyl)ethyl)-4-hydroxycyclohexane carboxamide]
IC50 (human IDO1): 750 nM

C[C@@H](NC(=O)[C@H]1CC[C@H](O)CC1)[C@H]1CC[C@@H](c2ccnc3ccc(F)cc32)CC1 [Example 12, (1r,4R)-N-((R)-1-((1s,4S)-4-(6-fluoroquinolin-4-yl)cyclohexyl)ethyl)-4-hydroxycyclohexane carboxamide]
IC50 (human IDO1): 170 nM

COc1ccc(CN(C(=O)NC2CCCCC2)[C@H]2CC[C@H](c3ccccc3)CC2)cc1 [Example 13, 3-cyclohexyl-1-(4-methoxybenzyl)-1-((1r,4r)-4-phenylcyclohexyl)urea]
IC50 [1]: 66 nM

COc1ccc(CN(C(=O)NC2CCCC2)[C@H]2CC[C@H](c3ccccc3)CC2)cc1 [Example 14, 3-cyclopentyl-1-(4-methoxybenzyl)-1-((1r,4r)-4-phenylcyclohexyl)-urea]
IC50 (human IDO1): 120 nM

COc1ccc(CN(C(=O)NC2CC2)[C@H]2CC[C@H](c3ccccc3)CC2)cc1 [Example 15, 3-cyclopropyl-1-(4-methoxybenzyl)-1-((1r,4r)-4-phenylcyclohexyl)-urea]
IC50 (human IDO1): 240 nM

CC1(CC(=O)NC23CC4CC(CC(C4)C2)C3)CCN(c2ccnc3ccc(F)cc23)CC1 [Example 16, N-((3s,5s,7s)-Adamantan-1-yl)-2-(1-(6-fluoroquinolin-4-yl)-4-methylpiperidin-4-yl)acetamide]
IC50 [1]: 31 nM

CC1(CC(=O)N[C@@]23C[C@@H]4C[C@@H](C[C@@](O)(C4)C2)C3)CCN(c2ccnc3ccc(F)cc23)CC1 [Example 17, 2-(1-(6-Fluoroquinolin-4-yl)-4-methylpiperidin-4-yl)-N-((1r,3s,5R,7S)-3-hydroxyadamantan-1-yl)acetamide]
IC50 (human IDO1): 390 nM

CC1(CC(=O)NC23CC4CC(CC(C4)C2)C3)CCN(c2ccnc(C(F)(F)F)c2)CC1 [Example 18, N-((3 s,5 s, 7 s)-Adamantan-1-yl)-2-(4-methyl-1-(2-(trifluoromethyl)pyridin-4-yl)piperidin-4-yl)acetamide]
IC50 (human IDO1): 180 nM

C[C@@H](C(=O)NC12CC3CC(C)(CC(C)(C3)C1)C2)[C@H]1CC[C@@H](c2ccnc3ccc(F)cc32)CC1 [Example 23, (cis)-(2R)—N-(3,5-dimethyladamantan-1-yl)-2-(4-(6-fluoroquinolin-4-yl)cyclohexyl)propanamide]
IC50 [1]: 14 nM
